In the NIST ThermoML archive (doi:10.1021/je201297j):
± gives the expanded uncertainty stated by the source.

Details: Liquid, Vibrating wire viscometry

Question: Which viscosity (243.15 K) does the source give for COC [dimethyl ether] here?
Answer: 0.2217 ± 0.0062 mPa·s

Question: What about the viscosity (248.16 K) of the same compound?
Answer: 0.2097 ± 0.006 mPa·s

Question: And the viscosity (253.15 K, 5000 kPa)?
Answer: 0.2044 ± 0.0059 mPa·s

Question: And the viscosity (253.15 K, 10000 kPa)?
Answer: 0.2125 ± 0.006 mPa·s

Question: What about the viscosity (253.15 K, 15000 kPa) of the same compound?
Answer: 0.2199 ± 0.0062 mPa·s

Question: What about the viscosity (253.15 K, 20000 kPa) of the same compound?
Answer: 0.2314 ± 0.0064 mPa·s

Question: What about the viscosity (253.15 K, 25000 kPa) of the same compound?
Answer: 0.2421 ± 0.0066 mPa·s

Question: And the viscosity (253.15 K, 30000 kPa)?
Answer: 0.2541 ± 0.0068 mPa·s

Question: And the viscosity (253.15 K)?
Answer: 0.1988 ± 0.0058 mPa·s

Question: What about the viscosity (258.14 K) of the same compound?
Answer: 0.1889 ± 0.0057 mPa·s

Question: What about the viscosity (263.15 K, 5000 kPa) of the same compound?
Answer: 0.1836 ± 0.0056 mPa·s

Question: And the viscosity (263.15 K, 10000 kPa)?
Answer: 0.1911 ± 0.0057 mPa·s

Question: And the viscosity (263.15 K, 15000 kPa)?
Answer: 0.1989 ± 0.0058 mPa·s

Question: And the viscosity (263.15 K, 20000 kPa)?
Answer: 0.2068 ± 0.006 mPa·s

Question: What about the viscosity (263.15 K, 25000 kPa) of the same compound?
Answer: 0.2156 ± 0.0061 mPa·s

Question: And the viscosity (263.15 K, 30000 kPa)?
Answer: 0.2252 ± 0.0063 mPa·s

Question: And the viscosity (263.15 K)?
Answer: 0.1796 ± 0.0055 mPa·s

Question: What about the viscosity (268.14 K) of the same compound?
Answer: 0.1709 ± 0.0054 mPa·s

Question: And the viscosity (273.14 K, 5000 kPa)?
Answer: 0.1669 ± 0.0053 mPa·s

Question: What about the viscosity (273.14 K, 10000 kPa) of the same compound?
Answer: 0.1742 ± 0.0054 mPa·s

Question: And the viscosity (273.14 K, 15000 kPa)?
Answer: 0.1816 ± 0.0056 mPa·s

Question: What about the viscosity (273.14 K, 20000 kPa) of the same compound?
Answer: 0.189 ± 0.0057 mPa·s

Question: And the viscosity (273.14 K, 25000 kPa)?
Answer: 0.196 ± 0.0058 mPa·s

Question: And the viscosity (273.14 K, 30000 kPa)?
Answer: 0.2035 ± 0.0059 mPa·s

Question: And the viscosity (273.14 K)?
Answer: 0.1628 ± 0.0052 mPa·s

Question: And the viscosity (278.13 K)?
Answer: 0.1552 ± 0.0051 mPa·s

Question: And the viscosity (283.14 K, 5000 kPa)?
Answer: 0.1521 ± 0.0051 mPa·s

Question: What about the viscosity (283.14 K, 10000 kPa) of the same compound?
Answer: 0.159 ± 0.0052 mPa·s

Question: What about the viscosity (283.14 K, 15000 kPa) of the same compound?
Answer: 0.1657 ± 0.0053 mPa·s

Question: What about the viscosity (283.14 K, 20000 kPa) of the same compound?
Answer: 0.1724 ± 0.0054 mPa·s

Question: And the viscosity (283.14 K, 25000 kPa)?
Answer: 0.1791 ± 0.0055 mPa·s

Question: What about the viscosity (283.14 K, 30000 kPa) of the same compound?
Answer: 0.1857 ± 0.0056 mPa·s

Question: And the viscosity (283.14 K)?
Answer: 0.1479 ± 0.005 mPa·s

Question: And the viscosity (288.14 K)?
Answer: 0.1414 ± 0.0049 mPa·s

Question: And the viscosity (293.14 K, 5000 kPa)?
Answer: 0.1395 ± 0.0049 mPa·s

Question: What about the viscosity (293.14 K, 10000 kPa) of the same compound?
Answer: 0.1455 ± 0.005 mPa·s

Question: And the viscosity (293.14 K, 15000 kPa)?
Answer: 0.1527 ± 0.0051 mPa·s

Question: And the viscosity (293.14 K, 20000 kPa)?
Answer: 0.1586 ± 0.0052 mPa·s

Question: What about the viscosity (293.14 K, 25000 kPa) of the same compound?
Answer: 0.1652 ± 0.0053 mPa·s

Question: What about the viscosity (293.14 K, 30000 kPa) of the same compound?
Answer: 0.1709 ± 0.0054 mPa·s

Question: What about the viscosity (293.14 K) of the same compound?
Answer: 0.1351 ± 0.0048 mPa·s

Question: And the viscosity (298.14 K)?
Answer: 0.129 ± 0.0047 mPa·s

Question: What about the viscosity (303.14 K, 5000 kPa) of the same compound?
Answer: 0.1276 ± 0.0047 mPa·s

Question: And the viscosity (303.14 K, 10000 kPa)?
Answer: 0.134 ± 0.0048 mPa·s

Question: And the viscosity (303.14 K, 15000 kPa)?
Answer: 0.1401 ± 0.0049 mPa·s

Question: And the viscosity (303.14 K, 20000 kPa)?
Answer: 0.1464 ± 0.005 mPa·s

Question: What about the viscosity (303.14 K, 25000 kPa) of the same compound?
Answer: 0.1521 ± 0.0051 mPa·s

Question: What about the viscosity (303.14 K, 30000 kPa) of the same compound?
Answer: 0.1584 ± 0.0052 mPa·s

Question: And the viscosity (303.14 K)?
Answer: 0.124 ± 0.0047 mPa·s

Question: And the viscosity (308.14 K)?
Answer: 0.1181 ± 0.0046 mPa·s

Question: What about the viscosity (313.14 K, 5000 kPa) of the same compound?
Answer: 0.1165 ± 0.0046 mPa·s

Question: And the viscosity (313.14 K, 10000 kPa)?
Answer: 0.1235 ± 0.0047 mPa·s

Question: What about the viscosity (313.14 K, 15000 kPa) of the same compound?
Answer: 0.1294 ± 0.0048 mPa·s

Question: What about the viscosity (313.14 K, 20000 kPa) of the same compound?
Answer: 0.1355 ± 0.0049 mPa·s

Question: And the viscosity (313.14 K, 25000 kPa)?
Answer: 0.1415 ± 0.0049 mPa·s

Question: And the viscosity (313.14 K, 30000 kPa)?
Answer: 0.1473 ± 0.005 mPa·s

Question: And the viscosity (313.14 K)?
Answer: 0.1129 ± 0.0045 mPa·s

Question: What about the viscosity (318.12 K) of the same compound?
Answer: 0.108 ± 0.0045 mPa·s

Question: What about the viscosity (323.12 K, 5000 kPa) of the same compound?
Answer: 0.107 ± 0.0045 mPa·s

Question: And the viscosity (323.12 K, 10000 kPa)?
Answer: 0.1139 ± 0.0046 mPa·s

Question: What about the viscosity (323.12 K, 15000 kPa) of the same compound?
Answer: 0.1199 ± 0.0046 mPa·s

Question: And the viscosity (323.12 K, 20000 kPa)?
Answer: 0.1262 ± 0.0047 mPa·s

Question: And the viscosity (323.12 K, 25000 kPa)?
Answer: 0.1316 ± 0.0048 mPa·s

Question: And the viscosity (323.12 K, 30000 kPa)?
Answer: 0.137 ± 0.0049 mPa·s

Question: What about the viscosity (323.12 K) of the same compound?
Answer: 0.1031 ± 0.0044 mPa·s

Question: What about the viscosity (328.12 K) of the same compound?
Answer: 0.09861 ± 0.0044 mPa·s

Question: And the viscosity (333.12 K, 5000 kPa)?
Answer: 0.09797 ± 0.0044 mPa·s

Question: And the viscosity (333.12 K, 10000 kPa)?
Answer: 0.1049 ± 0.0044 mPa·s

Question: And the viscosity (333.12 K, 15000 kPa)?
Answer: 0.1111 ± 0.0045 mPa·s

Question: What about the viscosity (333.12 K, 20000 kPa) of the same compound?
Answer: 0.117 ± 0.0046 mPa·s

Question: What about the viscosity (333.12 K, 25000 kPa) of the same compound?
Answer: 0.1231 ± 0.0047 mPa·s

Question: What about the viscosity (333.12 K, 30000 kPa) of the same compound?
Answer: 0.1284 ± 0.0047 mPa·s

Question: What about the viscosity (333.13 K) of the same compound?
Answer: 0.09419 ± 0.0043 mPa·s

Question: What about the viscosity (338.13 K) of the same compound?
Answer: 0.08983 ± 0.0043 mPa·s

Question: And the viscosity (343.13 K, 5000 kPa)?
Answer: 0.08951 ± 0.0043 mPa·s

Question: And the viscosity (343.13 K, 10000 kPa)?
Answer: 0.09664 ± 0.0043 mPa·s

Question: And the viscosity (343.13 K, 15000 kPa)?
Answer: 0.1036 ± 0.0044 mPa·s

Question: What about the viscosity (343.13 K, 20000 kPa) of the same compound?
Answer: 0.1096 ± 0.0045 mPa·s

Question: And the viscosity (343.13 K, 25000 kPa)?
Answer: 0.1151 ± 0.0046 mPa·s

Question: And the viscosity (343.13 K, 30000 kPa)?
Answer: 0.1204 ± 0.0046 mPa·s

Question: And the viscosity (343.13 K)?
Answer: 0.08575 ± 0.0042 mPa·s

Question: What about the viscosity (348.13 K) of the same compound?
Answer: 0.08166 ± 0.0042 mPa·s

Question: And the viscosity (353.12 K, 5000 kPa)?
Answer: 0.08119 ± 0.0042 mPa·s

Question: What about the viscosity (353.12 K, 10000 kPa) of the same compound?
Answer: 0.08899 ± 0.0043 mPa·s

Question: What about the viscosity (353.12 K, 15000 kPa) of the same compound?
Answer: 0.0959 ± 0.0043 mPa·s

Question: And the viscosity (353.12 K, 20000 kPa)?
Answer: 0.1017 ± 0.0044 mPa·s

Question: What about the viscosity (353.12 K, 25000 kPa) of the same compound?
Answer: 0.1075 ± 0.0045 mPa·s

Question: What about the viscosity (353.12 K, 30000 kPa) of the same compound?
Answer: 0.1127 ± 0.0045 mPa·s

Question: What about the viscosity (353.12 K) of the same compound?
Answer: 0.07777 ± 0.0042 mPa·s

Question: And the viscosity (358.13 K)?
Answer: 0.07388 ± 0.0042 mPa·s

Question: What about the viscosity (363.13 K, 10000 kPa) of the same compound?
Answer: 0.08181 ± 0.0042 mPa·s

Question: And the viscosity (363.13 K, 15000 kPa)?
Answer: 0.08877 ± 0.0043 mPa·s

Question: What about the viscosity (363.13 K, 20000 kPa) of the same compound?
Answer: 0.09499 ± 0.0043 mPa·s

Question: What about the viscosity (363.13 K, 25000 kPa) of the same compound?
Answer: 0.101 ± 0.0044 mPa·s

Question: What about the viscosity (363.13 K, 30000 kPa) of the same compound?
Answer: 0.1066 ± 0.0045 mPa·s

Question: What about the viscosity (363.13 K) of the same compound?
Answer: 0.07014 ± 0.0041 mPa·s

Question: What about the viscosity (368.13 K) of the same compound?
Answer: 0.06636 ± 0.0041 mPa·s

Question: What about the viscosity (373.13 K, 5000 kPa) of the same compound?
Answer: 0.06522 ± 0.0042 mPa·s

Question: And the viscosity (373.13 K, 10000 kPa)?
Answer: 0.07506 ± 0.0042 mPa·s

Question: What about the viscosity (373.13 K, 15000 kPa) of the same compound?
Answer: 0.08237 ± 0.0042 mPa·s

Question: What about the viscosity (373.13 K, 20000 kPa) of the same compound?
Answer: 0.08883 ± 0.0043 mPa·s

Question: And the viscosity (373.13 K, 25000 kPa)?
Answer: 0.09475 ± 0.0043 mPa·s

Question: And the viscosity (373.13 K, 30000 kPa)?
Answer: 0.09991 ± 0.0044 mPa·s

Question: And the viscosity (373.13 K)?
Answer: 0.06256 ± 0.0041 mPa·s
